These results are taken from patent publication US10006044B2, “Soybean event SYHT04R and compositions and methods for detection thereof” (Syngenta Participations AG, priority 2010, dated 2018).

Common to all, as to format: in vivo, Glycine max
The test system of assay [1] is non-transgenic soybean line Jack. Put plainly: Field efficacy: leaf injury after mesotrione treatment, control line. The conditions noted are these: 210 g ai/ha mesotrione at V2/V3 stage, % of leaves showing injury, 9 US locations. As to the method: (§1) SYH[…] soybean plants were tested for efficacy against mesotrione in 9 locations in the United States. The non-transgenic soybean line Jack was used as a control. […]

Assay [2] deals with SYHT04R soybean plants. Put plainly: Field efficacy: leaf injury after mesotrione treatment, event SYHT04R. The conditions noted are these: line SYHT04R; 210 g ai/ha mesotrione at V2/V3 stage; % of leaves showing injury; 9 US locations. As to the method: as §1
In assay [3] the test system is Soybean event SYHT04R. Put plainly: Yield of soybean event SYHT04R sprayed with mesotrione versus the event unsprayed. The conditions noted are these: for average yield advantage versus unsprayed: SYHT04R in several elite soybean genotypes, additional replicated trials. How it is done:
This observation has been made during multiple seasons of replicated agronomic and efficacy trials conducted on the STYHT04R event in the genotype ‘Jack.’ In a representative study, SYHT04R was tested in twenty Midwestern locations.

Assay [4] concerns event SYHT04R. Put plainly: Herbicide tolerance performance of transgenic seeds and progeny plants. The conditions noted are these: from a population of about 90 transformants. The source says:
After plants became established in the soil and new growth appeared (˜1-2 weeks), plants were sampled and tested for the presence of desired transgene by TAQMAN® analysis using appropriate probes for the HPPD genes or promoters. Positive plants were transplanted into 4″ square pots containing Fafard #3 soil. Sierra 17-6-12 slow release fertilizer was incorporated into the soil at the recommended rate. The plants were then relocated into a standard greenhouse to acclimatize (˜1 week). The environmental conditions were: 27° C. day; 21° C. night; 14 hour photoperiod (with supplemental light); ambient humidity. After acclimatizing (˜1 week), the plants were sampled and tested in detail for the presence and copy number of inserted transgenes. Transgenic soybean plants were grown to maturity for T1 seed production. T1 plants were grown up, and after TAQMAN® analysis, homozygous plants were grown for seed production. Transgenic seeds and progeny plants were used to further evaluate their herbicide tolerance performance and molecular characteristics.

Regarding `CS(=O)(=O)c1ccc(C(=O)C2C(=O)CCCC2=O)c([N+](=O)[O-])c1` [mesotrione], the “% Injury 5-11 DAT” value is 57% in assay [1] and 19% in assay [2]. Also, the figures for the “% Injury 14-21 DAT” value in assay [1] and in assay [2] were 78% and 10%, respectively. Further, the entries for the “% Injury 25-36 DAT” value in assay [1] and in assay [2] were 72% and 4%, respectively. Also, the “greater yield than the unsprayed event” value in assay [3] (2× application at early vegetative stage, separate study, ten locations) is 1.4 bushels per acre; in assay [3] (2× application at early vegetative stage, twenty Midwestern locations, genotype Jack), 3.7 bushels per acre; in assay [3] (2× pre-emergence application, separate study, ten locations) it was 3.1 bushels per acre; in assay [3] (2× pre-emergence application, twenty Midwestern locations, genotype Jack) it was 4.9 bushels per acre. Moreover, the “average yield advantage versus unsprayed” value in assay [3] (early post-emergence application) worked out at 0.6 bushels per acre; in assay [3] (pre-emergence application), 1.1 bushels per acre. Further, the “mesotrione tolerance of the event” value in assay [4] is given as “high level of mesotrione tolerance”.
